As a reminder, the Ki is the dissociation constant of the complex between target and ligand, obtained from inhibition or displacement. High values mean weaker binding, low ones tighter binding.

In the first test the target is Sigma 2 receptor. In words: The Binding affinity was evaluated against sigma-2 binding site in rat liver using [3H]- -(+)-3-PPP.
Take `CN(CCc1ccc(Cl)c(Cl)c1)CCN1CCCC1`: affinity was put at a Ki of 0.34 nM.

The next test deals with Sigma 2 receptor. Put plainly: The Binding affinity was evaluated using [3H]DTG -(+)-Dextrallorphan] in rat liver.
With `Cc1ccc(NC(=N)Nc2ccc(C)cc2)cc1`, the Ki came out at 1540 nM.

The target of the next test is Sigma 2 receptor. Put plainly: Binding affinity was evaluated against sigma-2 binding site in rat liver using [3H]DTG -(+)-Dextrallorphan as radioligand.
Take `CN(CCc1cccc(Cl)c1)CCN1CCCC1`: affinity was put at a Ki of 28.3 nM.

Molecule `CN(CCc1cccc(Br)c1)CCN1CCCC1` yielded a Ki of 59.8 nM.

In the case of `CN(CCc1cccc(I)c1)CCN1CCCC1`, the Ki was found to be 9.1 nM.

`CN(CCc1ccc(I)cc1)CCN1CCCC1` returned a Ki of 43.1 nM.

For `CN(CCc1cccc(F)c1)CCN1CCCC1`, the Ki came to 104 nM.

Take `CN(CCN1CCCC1)Cc1cccc(Br)c1`: affinity was put at a Ki of 220 nM.

Take `CN(CCc1ccc(F)cc1)CCN1CCCC1`: the affinity, expressed as Ki, was 124 nM.

On to `CN(CCN1CCCC1)Cc1ccc(I)cc1`, for which the affinity, expressed as Ki, was 24.5 nM.

`CN(CCc1ccc(Cl)c(Cl)c1)CCN1CCCC1` had a Ki of 8.1 nM.

`CN(CCc1ccc(Br)cc1)CCN1CCCC1`: the Ki turned out to be 32.5 nM.

With `CN(CCN1CCCC1)Cc1ccccc1I`, the Ki worked out at 48.2 nM.

Regarding `CN(CCN1CCCC1)Cc1cccc(I)c1`, the affinity, expressed as Ki, was 33.7 nM.

`CN(CCc1ccc(Cl)cc1)CCN1CCCC1`: the Ki turned out to be 50.5 nM.

Source of the values: ChEMBL document CHEMBL1126607, “Synthesis and binding characteristics of potential SPECT imaging agents for sigma-1 and sigma-2 binding sites” (J Med Chem, 1993).
